As a reminder, the inhibition is the relative decrease from the control value, in per cent.

Molecules are shown by their SMILES.

Data set [1] relates to GABAA transporter. In words: GABA transporter binding (antagonist radioligand). To be noted: 100 μM, rat cerebral cortex. The protocol: (§1) Binding/functional studies were carried out commercially in Eurofins Laboratories (Poitiers, France) and Eurofins Panlabs Discovery Services Taiwan, Ltd. (New Taipei City, Taiwan) using testing procedures that were reported previously (for details, see Table S2).
(§2) Table S2. Radioligand binding and functional assays. […]
GABA transporter (antagonist radioligand) […]
(§3) Potassium channel (hERG) […]
(§4) Assays were performed commercially in Eurofins Laboratories ( Poitiers, France) or Eurofins Panlabs Discovery Services
(§5) Taiwan, Ltd. (New Taipei City, Taiwan).

For data set [2], the system named is mice. Briefly: Streptozotocin (STZ)-induced peripheral neuropathy, von Frey test. In kind it is in vivo. The note with it: 21 days after STZ. The protocol: In the first group, the initial value of 6.08 ± 0.29 (baseline) decreased to the value of 4.30 ± 0.21 (70.7% of the baseline). […] In the second group, the initial value of 6.08 ± 0.29 (baseline) decreased to the value of 5.02 ± 0.27 (82.6% of the baseline). The administration of 28 at a dose of 25 mg/kg elevated the pain threshold to the value of 7.69 ± 0.41, which corresponds with 126.5% of the baseline. In the third group, the baseline was decreased to the value of 5.35 ± 0.27 (88.0% of the baseline). The effect was not statistically significant. The administration of 28 at a dose of 50 mg/kg elevated the pain threshold to a value as high as 8.70 ± 0.41, which corresponds with 143.1% of the baseline.
The experimental groups consisted of 10 adult male Albino Swiss mice (CD-1, 18–25 g). Each animal was tested only once. Immediately after the assay, the animals were sacrificed by cervical dislocation. Behavioral measurements were observed by trained observers. The in vivo antinociceptive assays were in accordance with Polish regulations and the European Union Directive of 22 Sept 2010 (2010/63/EU). All procedures were carried out according to the rules of the International Council on Laboratory Animal Science (ICLAS) and were approved by the Local Ethics Committee in Cracow, Poland (104/2015, 279/2019, and 614/2022). The tested substances were suspended in a 1% aqueous solution of Tween 80 and were injected i.p. 30 min prior to the test. Control group animals (negative control) were administered with an appropriate amount of vehicle (Tween 80, 1% aqueous solution, i.p.) 30 min prior to the test. […] Before formalin application, different groups of animals were injected i.p. with vehicle (10 mL/kg, negative control). The in vivo procedure for the model of capsaicin-induced nociception was previously reported;[67] the animals were pretreated with vehicle (10 mL/kg, negative control), and the dose–response of investigated compounds was evaluated at 12.5, 25, and 50 mg/kg.
Data are presented as means ± standard error of the mean (SEM). GraphPad Prism Software (v.5) was used to analyze the vast majority of data. Statistically significant differences between groups were calculated using one-way analysis of variance (ANOVA) and the post hoc Dunnett’s multiple comparison test or two-way analysis of variance (ANOVA). The criterion for significance was set at p < 0.05. The log-probit method was applied to statistically determine the ED50 values with 95% confidence limits.

The subject of data set [3] is AMPA. Briefly: AMPA binding (agonist radioligand). To be noted: 100 μM, rat cerebral cortex. The procedure:
as §1, §2
AMPA (agonist radioligand) […]
as §3, §4, §5

The subject of data set [4] is mature BDNF (mBDNF). In words: mBDNF and proNGF expression in hippocampus and cortex of PTZ-kindled mice (western blot). The note with it: PTZ-kindled animals, prolonged treatment. In kind it is in vivo. The protocol: In addition, we determined the expression of the nerve growth factor (NGF), which can also be implicated in kindling progression, by enhancing mossy fiber sprouting.[40] However, no changes in the NGF protein expression in the hippocampus and cortex of kindled animals were found (Figure 5C,D).
The expression of mBDNF and proNGF in the mouse hippocampus and cortex was evaluated by the western blot technique. Half of mouse brain structures, cortex and hippocampus, were weighted and homogenized at the ratio of 9 μL/mg in 2% sodium dodecyl sulfate (SDS) supplemented with a cocktail of protease (Thermo Scientific) and phosphatese inhibitors (Sigma-Aldrich) using a bead homogenizer (Bead Ruptor Elite, Omni International). Then, the samples were denatured at 95 °C for 10 min and centrifuged at 10,000g for 10 min at 4 °C. The total protein concentration in the obtained supernatants was determined using a PierceTM BCA Protein Assay Kit (Thermo Scientific, Waltham, MA). After setting the proper protein concentration, the samples were mixed with loading buffer (containing 10% 2-mercaptoethanol) at a ratio of 3:1 and heated for 10 min at 95 °C. Equal amounts of the protein (45 μg/lane) were loaded on Any kD precast polyacrylamide gels (Criterion, TGX Stain-Free gel, Bio-Rad, Hercules, CA) and subjected to electrophoresis (170 V, 60 min). Separated proteins were transferred to the polyvinylidene difluoride (PVDF) membrane (Bio-Rad, Hercules, CA) and were blocked in a 5% solution of albumin in TBST. […] The proteins were detected using the electrochemiluminescence (ECL) method (Western Bright Quantum, Advansta Inc., San Jose, CA). The chemiluminescence of the membranes was imaged with the G-Box Imaging System (Syngene, Frederick, MD), and the protein expression was analyzed with Gene Tools software (Syngene, Frederick, MD) and expressed as relative to the total protein content in the membrane lane.
Changes in the relative expression of tested proteins were analyzed using one-way ANOVA with Tukey’s post hoc test.
For orientation: Immunoblotting shows a protein as a band on a membrane.

Data set [5] concerns mice. In words: Spontaneous locomotor activity. In kind it is in vivo. The note with it: all tested doses, i.p. 30 min before. The protocol:
We aimed to test the influence of the test compound on spontaneous locomotor activity to investigate its sedative properties. The strong sedative activity of new compounds is considered an undesirable property, which may lead to an incorrect or ambiguous interpretation of the in vivo results.
Figure S3. […] The test compound or […]
vehicle (1% Tween 80 solution) were administered 30 min i.p. before the 30-min long evaluation of locomotor activity. The results are presented as bar plots showing the mean ± SEM. The statistical significance was evaluated by one-way ANOVA followed by Dunnett’s post hoc test: * p < 0.05, *** p < 0.001, n = 8–10 mice per […]
(1 picture or pasted object on this page, not shown here)

In data set [6] the target is T1, Cav2.2 calcium ion channel (Rattus norvegicus, UniProt Q02294).
T1 construct: rat cerebral cortex; tissue Eurofins (contract assay); host or cells: rat cerebral cortex
In words: Cav2.2 binding (antagonist radioligand). The note with it: rat cerebral cortex, read-out: % inhibition of control specific binding. The procedure:
as §1, §2
Cav2.2 calcium ion channel (antagonist radioligand) […]
as §3, §4, §5

For data set [7], the system named is NMDA. Briefly: NMDA binding (antagonist radioligand). The note with it: 100 μM, rat cerebral cortex. The procedure: as §1
Table S2. Radioligand binding and functional assays.
NMDA (antagonist radioligand) […]
as §3, §4, §5

T1 sequence (Q02294 whole entry): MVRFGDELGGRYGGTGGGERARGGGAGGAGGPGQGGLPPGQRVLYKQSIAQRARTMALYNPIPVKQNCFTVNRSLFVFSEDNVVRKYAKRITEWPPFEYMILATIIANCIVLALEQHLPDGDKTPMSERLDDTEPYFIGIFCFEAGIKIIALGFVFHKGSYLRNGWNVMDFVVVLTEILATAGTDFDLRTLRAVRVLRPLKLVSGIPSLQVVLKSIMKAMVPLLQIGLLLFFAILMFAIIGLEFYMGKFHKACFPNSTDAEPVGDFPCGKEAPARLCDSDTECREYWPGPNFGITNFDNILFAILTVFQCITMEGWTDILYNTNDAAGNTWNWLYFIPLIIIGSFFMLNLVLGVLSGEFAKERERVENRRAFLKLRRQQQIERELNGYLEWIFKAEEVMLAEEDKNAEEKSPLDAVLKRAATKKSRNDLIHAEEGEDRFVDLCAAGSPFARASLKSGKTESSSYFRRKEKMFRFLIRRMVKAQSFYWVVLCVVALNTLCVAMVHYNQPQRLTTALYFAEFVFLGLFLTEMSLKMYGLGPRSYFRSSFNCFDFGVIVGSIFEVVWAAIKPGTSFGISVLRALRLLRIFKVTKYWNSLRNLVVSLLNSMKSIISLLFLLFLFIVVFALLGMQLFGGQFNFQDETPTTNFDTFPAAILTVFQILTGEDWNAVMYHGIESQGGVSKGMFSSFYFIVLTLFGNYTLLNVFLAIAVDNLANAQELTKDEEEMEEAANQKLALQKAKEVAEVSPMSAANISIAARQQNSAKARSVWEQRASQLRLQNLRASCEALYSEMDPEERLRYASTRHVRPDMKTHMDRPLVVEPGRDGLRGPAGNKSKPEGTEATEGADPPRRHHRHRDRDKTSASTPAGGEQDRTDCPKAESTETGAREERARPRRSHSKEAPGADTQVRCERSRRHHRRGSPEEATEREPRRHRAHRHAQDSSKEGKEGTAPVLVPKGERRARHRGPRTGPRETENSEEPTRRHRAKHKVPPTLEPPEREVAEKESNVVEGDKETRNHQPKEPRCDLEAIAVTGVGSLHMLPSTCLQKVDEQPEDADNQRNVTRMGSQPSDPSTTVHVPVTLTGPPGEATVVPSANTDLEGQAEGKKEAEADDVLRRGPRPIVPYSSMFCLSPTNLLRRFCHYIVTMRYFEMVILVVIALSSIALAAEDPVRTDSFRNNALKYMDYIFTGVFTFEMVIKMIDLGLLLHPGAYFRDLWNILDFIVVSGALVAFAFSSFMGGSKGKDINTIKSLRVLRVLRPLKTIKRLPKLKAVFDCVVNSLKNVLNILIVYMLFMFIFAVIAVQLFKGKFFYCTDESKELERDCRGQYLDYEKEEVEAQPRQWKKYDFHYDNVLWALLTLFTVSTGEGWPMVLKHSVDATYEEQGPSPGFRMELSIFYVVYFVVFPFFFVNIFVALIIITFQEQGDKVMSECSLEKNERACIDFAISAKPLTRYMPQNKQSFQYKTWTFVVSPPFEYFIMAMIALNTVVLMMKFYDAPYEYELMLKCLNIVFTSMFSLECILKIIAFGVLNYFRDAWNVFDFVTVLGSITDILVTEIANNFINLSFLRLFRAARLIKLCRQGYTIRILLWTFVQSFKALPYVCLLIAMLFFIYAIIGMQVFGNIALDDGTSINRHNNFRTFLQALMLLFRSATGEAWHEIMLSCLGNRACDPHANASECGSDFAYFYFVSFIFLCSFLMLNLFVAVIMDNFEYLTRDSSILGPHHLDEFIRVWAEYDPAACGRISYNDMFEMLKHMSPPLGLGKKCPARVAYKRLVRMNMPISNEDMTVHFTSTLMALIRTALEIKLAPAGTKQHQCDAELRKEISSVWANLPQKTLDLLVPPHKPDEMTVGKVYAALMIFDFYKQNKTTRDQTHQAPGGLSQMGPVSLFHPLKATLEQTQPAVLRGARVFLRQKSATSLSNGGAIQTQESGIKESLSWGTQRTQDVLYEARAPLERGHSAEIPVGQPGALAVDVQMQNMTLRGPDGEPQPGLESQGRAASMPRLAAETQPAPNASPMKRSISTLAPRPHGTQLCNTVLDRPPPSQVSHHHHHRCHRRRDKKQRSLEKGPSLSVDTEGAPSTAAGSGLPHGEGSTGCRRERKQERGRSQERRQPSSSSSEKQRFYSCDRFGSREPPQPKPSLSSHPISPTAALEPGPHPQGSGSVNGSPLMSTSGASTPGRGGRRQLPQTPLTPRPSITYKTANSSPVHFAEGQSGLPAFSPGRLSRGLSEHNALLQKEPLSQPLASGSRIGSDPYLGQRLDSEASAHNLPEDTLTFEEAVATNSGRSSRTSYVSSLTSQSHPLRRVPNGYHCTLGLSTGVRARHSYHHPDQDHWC
T1 sequence (P54287 whole entry partner): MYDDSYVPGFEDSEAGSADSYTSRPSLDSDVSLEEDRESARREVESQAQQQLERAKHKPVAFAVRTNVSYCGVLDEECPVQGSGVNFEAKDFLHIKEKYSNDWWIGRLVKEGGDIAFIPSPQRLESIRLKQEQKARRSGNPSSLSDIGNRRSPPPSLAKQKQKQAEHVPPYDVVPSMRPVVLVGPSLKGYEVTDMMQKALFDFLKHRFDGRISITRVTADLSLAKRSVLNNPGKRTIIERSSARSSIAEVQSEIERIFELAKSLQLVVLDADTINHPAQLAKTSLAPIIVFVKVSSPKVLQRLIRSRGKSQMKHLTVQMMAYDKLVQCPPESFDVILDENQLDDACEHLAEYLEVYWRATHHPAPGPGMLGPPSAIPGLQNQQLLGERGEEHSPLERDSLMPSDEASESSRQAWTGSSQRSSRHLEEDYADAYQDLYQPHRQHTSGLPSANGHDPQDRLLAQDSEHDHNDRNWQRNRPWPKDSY
T1 sequence (P54290 25-944 partner limits assumed): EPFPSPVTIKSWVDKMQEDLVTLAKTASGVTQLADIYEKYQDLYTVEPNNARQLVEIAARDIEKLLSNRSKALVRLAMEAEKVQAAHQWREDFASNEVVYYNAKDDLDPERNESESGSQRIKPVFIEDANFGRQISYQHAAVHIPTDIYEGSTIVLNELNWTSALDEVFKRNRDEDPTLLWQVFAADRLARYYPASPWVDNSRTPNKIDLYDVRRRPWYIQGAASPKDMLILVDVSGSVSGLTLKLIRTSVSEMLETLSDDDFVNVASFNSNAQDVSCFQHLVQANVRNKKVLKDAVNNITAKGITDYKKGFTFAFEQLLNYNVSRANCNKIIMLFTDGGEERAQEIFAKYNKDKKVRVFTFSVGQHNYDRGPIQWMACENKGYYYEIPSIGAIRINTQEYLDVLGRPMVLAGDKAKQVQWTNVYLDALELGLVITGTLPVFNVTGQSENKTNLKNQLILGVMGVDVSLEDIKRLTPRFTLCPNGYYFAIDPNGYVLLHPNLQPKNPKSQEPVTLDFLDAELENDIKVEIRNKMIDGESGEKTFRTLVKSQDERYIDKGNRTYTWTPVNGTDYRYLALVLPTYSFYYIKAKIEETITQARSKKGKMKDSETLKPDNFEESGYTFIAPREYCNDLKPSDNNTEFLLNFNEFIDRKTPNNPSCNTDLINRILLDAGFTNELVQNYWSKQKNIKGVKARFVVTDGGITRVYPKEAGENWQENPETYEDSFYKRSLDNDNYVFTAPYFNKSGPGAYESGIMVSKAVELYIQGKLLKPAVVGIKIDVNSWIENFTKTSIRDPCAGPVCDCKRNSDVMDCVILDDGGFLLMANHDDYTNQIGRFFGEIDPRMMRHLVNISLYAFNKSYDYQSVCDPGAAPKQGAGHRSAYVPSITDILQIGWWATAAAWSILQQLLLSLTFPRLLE
T1 sequence (P54290 945-1091 partner limits assumed): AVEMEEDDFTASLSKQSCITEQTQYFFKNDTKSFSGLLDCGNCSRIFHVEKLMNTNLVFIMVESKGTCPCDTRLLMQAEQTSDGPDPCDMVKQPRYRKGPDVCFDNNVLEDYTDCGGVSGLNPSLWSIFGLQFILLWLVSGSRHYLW

In the case of `CC(=O)NC(C)C(=O)N1CCN(c2cccc(OC(F)(F)F)c2)CC1` (stereo not drawn) [Compound 28, N-(1-oxo-1-(4-(3-(Trifluoromethoxy)phenyl)piperazin-1-yl)propan-2-yl)acetamide], the “% inhibition of control specific binding” value in data set [1] is on record as 15.0%; in data set [3], “–21.0%”; in data set [7], 5.0%. Moreover, the “pain threshold after compound, % of the baseline” value in data set [2] (12.5 mg/kg) turned out to be 100.0%; in data set [2] (25 mg/kg), 126.5%; in data set [2] (50 mg/kg) it was 143.1%. Also, the “pain threshold (von Frey) after compound” value came to 7.69 ± 0.41 in data set [2] (25 mg/kg) and 8.70 ± 0.41 in data set [2] (50 mg/kg). Besides, the “mBDNF expression in the cortex” value in data set [4] is listed as “decreased the expression of mBDNF”. Besides, in data set [4], the “mBDNF expression in the hippocampus” value is on record as “not in the hippocampus”. The spontaneous locomotor activity entry in data set [5] is “decreased spontaneous locomotor activity”. In addition, the inhibition at 100 µM in data set [6] was found to be 3.6%.

For the origin of these results see article PMC11157491, “Novel Alaninamide Derivatives with Drug-like Potential for Development as Antiseizure and Antinociceptive Therapies—In Vitro and In Vivo Characterization” (ACS Chemical Neuroscience, 2024).
